Our source for the IC50 values is US20130040935A1, “CYCLIC KETO-ENOLS FOR THERAPY” (BAYER INTELLECTUAL PROPERTY GMBH, priority 2010, published 2013).

Where two headings read alike, the source gives them in different places.

Assay [1] concerns the target recombinant human ACC1 (Homo sapiens, UniProt Q13085). Nature of the assay: Human ACC1 enzyme assay, Assay A1 (HTRF ADP immunoassay).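 Note: ADP generated by the enzyme quantified via competitive time-resolved FRET, read as europium cryptate to d2 energy transfer after 1 h at 22 °C with labelled ADP tracer and anti-ADP antibody.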
Description: The inhibitory activity of the substances of this invention with regard to acetyl-CoA carboxylase 1 (ACC1) was measured using the ACC1 assay described in the paragraphs below. The basic principle of the assay is the measurement of adenosine diphosphate (ADP), which is formed as a by-product, by means of an HTRF®-based competitive immunoassay (HTRF=Homogeneous Time Resolved Fluorescence).
Typical concentrations were in the range of 2.5 ng/μl.
The amount of complex between d2-labelled ADP and europium cryptate-labelled anti-ADP antibody was then determined by measuring the resonance energy transfer from the europium cryptate to d2.
In assay [2] the target is acetyl-CoA carboxylase 2 (ACC2) (Homo sapiens, UniProt O00763). Nature of the assay: Human ACC2 enzyme assay, Assay A2 (HTRF ADP immunoassay).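 Note: ADP generated by ACC2 quantified via competitive time-resolved FRET between europium cryptate anti-ADP antibody and d2-tagged ADP, enzyme kept in linear range near 0.6 ng/µl.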
Sequence of acetyl-CoA carboxylase 2 (ACC2) (O00763 39-2458 limits assumed): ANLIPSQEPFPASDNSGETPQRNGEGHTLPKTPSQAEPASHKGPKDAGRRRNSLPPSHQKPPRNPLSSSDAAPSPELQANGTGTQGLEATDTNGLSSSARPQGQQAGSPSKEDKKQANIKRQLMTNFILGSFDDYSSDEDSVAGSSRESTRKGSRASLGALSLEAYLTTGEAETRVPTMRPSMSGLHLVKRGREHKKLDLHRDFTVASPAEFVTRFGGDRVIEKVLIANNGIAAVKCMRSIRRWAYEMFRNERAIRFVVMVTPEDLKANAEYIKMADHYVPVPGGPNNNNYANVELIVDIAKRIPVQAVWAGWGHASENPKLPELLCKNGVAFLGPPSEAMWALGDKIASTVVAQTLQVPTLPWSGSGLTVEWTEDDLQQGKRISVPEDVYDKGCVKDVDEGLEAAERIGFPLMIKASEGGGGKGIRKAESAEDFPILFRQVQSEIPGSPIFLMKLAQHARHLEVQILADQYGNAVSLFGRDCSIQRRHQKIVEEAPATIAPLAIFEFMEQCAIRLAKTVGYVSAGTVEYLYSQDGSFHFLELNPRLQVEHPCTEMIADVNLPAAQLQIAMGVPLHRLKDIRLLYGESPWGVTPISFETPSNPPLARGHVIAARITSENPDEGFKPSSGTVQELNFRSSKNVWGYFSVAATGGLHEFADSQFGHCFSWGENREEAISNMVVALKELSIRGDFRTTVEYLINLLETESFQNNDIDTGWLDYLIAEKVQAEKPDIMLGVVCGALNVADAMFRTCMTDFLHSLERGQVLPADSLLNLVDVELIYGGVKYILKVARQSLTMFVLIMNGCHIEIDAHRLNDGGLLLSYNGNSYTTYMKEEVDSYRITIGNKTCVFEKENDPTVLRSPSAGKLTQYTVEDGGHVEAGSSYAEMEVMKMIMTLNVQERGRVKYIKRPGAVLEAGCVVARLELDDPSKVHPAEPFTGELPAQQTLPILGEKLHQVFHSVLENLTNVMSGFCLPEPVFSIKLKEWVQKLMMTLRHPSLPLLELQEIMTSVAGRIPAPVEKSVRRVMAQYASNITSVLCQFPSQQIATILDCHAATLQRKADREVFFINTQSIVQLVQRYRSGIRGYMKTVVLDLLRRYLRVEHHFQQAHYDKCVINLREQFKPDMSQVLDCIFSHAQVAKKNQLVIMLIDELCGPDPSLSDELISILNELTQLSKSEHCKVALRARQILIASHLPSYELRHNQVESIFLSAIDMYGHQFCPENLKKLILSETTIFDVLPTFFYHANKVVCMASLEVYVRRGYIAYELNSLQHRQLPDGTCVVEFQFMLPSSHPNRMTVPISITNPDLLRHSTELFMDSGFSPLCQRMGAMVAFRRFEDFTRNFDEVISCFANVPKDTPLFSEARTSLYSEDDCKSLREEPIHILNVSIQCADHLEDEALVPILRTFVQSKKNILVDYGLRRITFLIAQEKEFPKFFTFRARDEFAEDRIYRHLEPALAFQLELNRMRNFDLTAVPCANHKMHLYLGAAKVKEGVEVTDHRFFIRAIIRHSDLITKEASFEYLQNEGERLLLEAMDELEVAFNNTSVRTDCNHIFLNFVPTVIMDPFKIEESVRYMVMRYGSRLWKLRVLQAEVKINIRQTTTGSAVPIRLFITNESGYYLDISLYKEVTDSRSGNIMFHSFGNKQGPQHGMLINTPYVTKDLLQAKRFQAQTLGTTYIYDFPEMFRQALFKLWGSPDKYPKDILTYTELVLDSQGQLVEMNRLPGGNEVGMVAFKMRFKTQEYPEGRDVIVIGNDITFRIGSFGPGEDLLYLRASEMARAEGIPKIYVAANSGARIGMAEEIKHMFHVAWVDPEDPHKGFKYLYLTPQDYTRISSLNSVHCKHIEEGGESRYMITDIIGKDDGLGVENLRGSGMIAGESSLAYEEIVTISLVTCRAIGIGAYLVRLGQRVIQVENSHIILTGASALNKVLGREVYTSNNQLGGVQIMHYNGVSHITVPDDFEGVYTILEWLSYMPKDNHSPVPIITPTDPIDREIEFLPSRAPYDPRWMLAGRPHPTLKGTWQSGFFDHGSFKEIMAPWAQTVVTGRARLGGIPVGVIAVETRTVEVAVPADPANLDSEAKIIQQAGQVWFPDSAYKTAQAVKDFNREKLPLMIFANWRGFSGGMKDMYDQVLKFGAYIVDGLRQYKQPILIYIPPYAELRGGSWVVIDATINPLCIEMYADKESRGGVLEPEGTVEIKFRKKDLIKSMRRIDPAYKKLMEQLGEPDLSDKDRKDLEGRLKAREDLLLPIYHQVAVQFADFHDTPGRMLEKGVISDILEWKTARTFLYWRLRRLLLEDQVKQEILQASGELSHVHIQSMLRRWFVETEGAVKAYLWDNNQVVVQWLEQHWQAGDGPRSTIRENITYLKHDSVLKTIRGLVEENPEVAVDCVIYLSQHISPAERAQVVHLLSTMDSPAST
Description: The inhibitory activity of the substances of this invention with regard to acetyl-CoA carboxylase 2 (ACC2) was measured using the ACC2 assay described in the paragraphs below. The basic principle of the assay is the measurement of adenosine diphosphate (ADP), which is formed as a by-product, by means of an HTRF®-based competitive immunoassay (HTRF=Homogeneous Time Resolved Fluorescence).
The amount of complex of d2-labelled ADP and europium cryptate-labelled anti-ADP antibody was then determined by measuring the resonance energy transfer of europium cryptate to d2.
The target in assay [3] is T1, human ACC1 (acetyl-coenzyme A carboxylase alpha transcript variant 1) (Homo sapiens, UniProt Q13085).
T1 construct: FLAG (C); made in house; host or cells: baculovirus-infected insect cells (Hi5)
Description: Human ACC1 enzyme assay, Assay B1 (ADP-Glo). In kind it is biochemical. (In general: ADP-Glo first removes unused ATP, then detects ADP through luciferase.)
Description: Essentially, the enzyme activity is measured by quantifying the adenosine diphosphate (ADP) formed as a byproduct of the enzyme reactions using the ADP-Glo™ detection system from Promega. In this test, initially the adenosine triphosphate (ATP) not consumed in the enzyme reaction is converted quantitatively with an adenylate cyclase (“ADP-GLO reagent”) into cAMP, the adenylate cyclase is then stopped and (“kinase detection reagent”) the ADP formed is subsequently converted into ATP, which is converted in a luciferase-based reaction into a glow luminescence signal.
The concentration of the hACC1 was adapted to the respective activity of the enzyme and adjusted such that the assay operated in the linear range. […] The amount of light emitted was taken as a measure for the amount of ADP formed and thus for the enzyme activity of the hACC1.

The target in assay [4] is human ACC2 (acetyl-coenzyme A carboxylase 2) (Homo sapiens, UniProt O00763). Description: Human ACC2 enzyme assay, Assay B2 (ADP-Glo).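 Note: human ACC2 activity read as ADP product, detected by luciferase glow luminescence after residual ATP removal, enzyme near 2 ng/µl in linear range, detection steps at 22 °C.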
Sequence of human ACC2 (acetyl-coenzyme A carboxylase 2) (O00763 27-2458 limits assumed): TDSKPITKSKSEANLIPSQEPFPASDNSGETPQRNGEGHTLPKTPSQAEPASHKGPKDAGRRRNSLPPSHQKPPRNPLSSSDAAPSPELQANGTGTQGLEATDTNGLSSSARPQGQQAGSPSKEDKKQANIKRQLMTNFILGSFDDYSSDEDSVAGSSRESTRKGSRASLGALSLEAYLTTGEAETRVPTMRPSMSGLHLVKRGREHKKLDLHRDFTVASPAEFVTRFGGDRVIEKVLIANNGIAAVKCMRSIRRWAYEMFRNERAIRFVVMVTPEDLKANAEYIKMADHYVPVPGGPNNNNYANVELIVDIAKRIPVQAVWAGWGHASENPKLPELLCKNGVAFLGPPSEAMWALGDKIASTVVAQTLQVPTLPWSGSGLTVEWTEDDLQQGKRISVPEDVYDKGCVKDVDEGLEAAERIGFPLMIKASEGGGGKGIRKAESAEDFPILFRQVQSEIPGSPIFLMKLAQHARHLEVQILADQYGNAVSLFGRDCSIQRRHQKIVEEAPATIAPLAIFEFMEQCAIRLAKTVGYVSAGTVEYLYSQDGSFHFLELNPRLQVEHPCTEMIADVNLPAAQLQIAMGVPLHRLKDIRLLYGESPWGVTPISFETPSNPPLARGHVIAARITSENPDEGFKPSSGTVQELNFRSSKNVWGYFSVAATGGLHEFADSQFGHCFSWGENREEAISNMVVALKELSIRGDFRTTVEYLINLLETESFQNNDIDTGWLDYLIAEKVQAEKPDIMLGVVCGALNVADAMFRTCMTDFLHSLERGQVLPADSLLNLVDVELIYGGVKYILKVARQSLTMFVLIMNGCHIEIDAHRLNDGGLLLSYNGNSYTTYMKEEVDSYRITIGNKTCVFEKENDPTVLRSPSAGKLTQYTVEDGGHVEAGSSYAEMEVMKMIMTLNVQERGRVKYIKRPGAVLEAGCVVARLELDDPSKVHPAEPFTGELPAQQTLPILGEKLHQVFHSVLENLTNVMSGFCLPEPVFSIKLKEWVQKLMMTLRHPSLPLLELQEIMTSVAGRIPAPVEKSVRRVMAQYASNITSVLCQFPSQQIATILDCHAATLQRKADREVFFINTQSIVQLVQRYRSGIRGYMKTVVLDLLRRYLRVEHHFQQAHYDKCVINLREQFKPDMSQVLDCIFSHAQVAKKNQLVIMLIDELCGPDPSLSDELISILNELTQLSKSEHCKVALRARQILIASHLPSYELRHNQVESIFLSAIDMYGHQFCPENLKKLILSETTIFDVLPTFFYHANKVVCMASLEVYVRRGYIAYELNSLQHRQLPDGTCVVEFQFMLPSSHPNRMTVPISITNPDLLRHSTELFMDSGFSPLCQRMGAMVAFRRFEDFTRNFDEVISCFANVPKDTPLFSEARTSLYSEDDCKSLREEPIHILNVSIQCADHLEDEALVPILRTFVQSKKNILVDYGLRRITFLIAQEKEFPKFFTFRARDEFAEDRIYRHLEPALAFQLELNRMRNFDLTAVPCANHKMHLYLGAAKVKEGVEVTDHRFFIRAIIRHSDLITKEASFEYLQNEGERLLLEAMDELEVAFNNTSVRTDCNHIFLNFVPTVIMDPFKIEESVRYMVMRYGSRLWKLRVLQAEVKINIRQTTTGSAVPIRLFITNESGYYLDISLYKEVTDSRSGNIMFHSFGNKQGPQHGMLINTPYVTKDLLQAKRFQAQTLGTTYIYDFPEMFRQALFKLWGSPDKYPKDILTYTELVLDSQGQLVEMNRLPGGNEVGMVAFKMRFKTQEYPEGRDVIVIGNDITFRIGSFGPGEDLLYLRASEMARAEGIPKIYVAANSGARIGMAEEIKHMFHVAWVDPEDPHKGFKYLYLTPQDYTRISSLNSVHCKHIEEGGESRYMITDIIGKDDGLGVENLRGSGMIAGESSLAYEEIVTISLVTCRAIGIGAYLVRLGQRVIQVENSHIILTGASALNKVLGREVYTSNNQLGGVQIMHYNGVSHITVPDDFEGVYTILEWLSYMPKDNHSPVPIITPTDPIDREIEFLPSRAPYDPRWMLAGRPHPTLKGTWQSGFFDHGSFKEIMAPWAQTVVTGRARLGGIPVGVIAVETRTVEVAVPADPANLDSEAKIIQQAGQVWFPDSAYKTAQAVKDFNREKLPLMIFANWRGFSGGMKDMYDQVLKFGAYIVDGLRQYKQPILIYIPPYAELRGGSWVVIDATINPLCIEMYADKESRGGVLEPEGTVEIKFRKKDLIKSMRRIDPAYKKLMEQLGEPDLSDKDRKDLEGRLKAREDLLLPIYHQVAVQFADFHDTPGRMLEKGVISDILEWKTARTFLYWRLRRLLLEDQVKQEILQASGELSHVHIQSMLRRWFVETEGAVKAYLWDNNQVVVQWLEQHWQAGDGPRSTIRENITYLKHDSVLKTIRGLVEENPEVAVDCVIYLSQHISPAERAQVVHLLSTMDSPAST
The subject of assay [5] is MCF7. Description: Cell proliferation assay (CellTiter-Glo, 96 h), MCF7. It counts as cell-based. As to conditions: Homo sapiens. On the procedure:
In accordance with the invention, the substances were tested in cell-based assays for the ability of the substances of inhibiting tumour cell proliferation after a 96-hour incubation with the substance. Cell viability was tested using the CellTiter-Glo® luminescent cell viability assay (Promega). The cells were sown at a density of 2000-5000 cells/well (depending on the cell line) in 100 μl growth medium on 96-well microtitre plates. For each cell line examined, cells were sown on a separate plate to determine the luminescence at t=0 hours and t=96 hours. After overnight incubation at 37° C., the luminescence values for the t=0 samples were determined. The dose plates for the t=96 hours points in time were treated with substances diluted with growth medium. The cells were then incubated at 37° C. for 96 hours, and the luminescence values for the t=96 hours sample were then determined. For data analysis, the t=0 values were subtracted from the t=96 hour values for treated and untreated samples. The differences in luminescence in percent between substance-treated samples and control values were used to determine the growth inhibition in percent.
The substances were tested in the following cell lines which represent the stated indications in an exemplary manner: […]
On the technique in general: Cellular ATP, detected with luciferase, serves as a proxy for viable cell number.

[6] abbreviates: Assay B1, read-out: ACC 1 (=B1) IC50.
The mark [7] stands for this setting: MCF7, Table 7, 96-hour incubation.
Setting [8] is: MCF7, Table 9a, 96-hour incubation.

As for `CCc1cc(C)cc(Br)c1C1=C(O)C2(CCCCC2)NC1=O` [V-4, reference compound], the IC50 (in general, the concentration at which inhibition is half-maximal) in assay [1] was 5400 nM; in assay [2], greater than 20000 nM.

Regarding `Cc1ccc(-c2ccc(Cl)c(F)c2)cc1C1=C(O)[C@]2(CC[C@H](C(F)(F)F)CC2)NC1=O` [1-90, (5s,8s)-3-(4′-Chloro-3′-fluoro-4-methylbiphenyl-3-yl)-4-hydroxy-8-(trifluoromethyl)-1-azaspiro[4.5]dec-3-en-2-one], the IC50 was 63 nM in assay [3] (setting [6]), 595 nM in assay [4], 143 nM in assay [1] and 331 nM in assay [2].

Consider `Cc1ccc(-c2ccc(Cl)c(F)c2)cc1C1=C(O)[C@]2(CC[C@H](C)CC2)NC1=O` [1-110, (5s,8s)-3-(4′-Chloro-3′-fluoro-4-methylbiphenyl-3-yl)-4-hydroxy-8-methyl-1-azaspiro[4.5]dec-3-en-2-one], for which the IC50 in assay [3] (setting [6]) is 80 nM; in assay [5] (setting [7]), 45 nM; in assay [4], 488 nM; in assay [1] it was 194 nM; in assay [2], 640 nM.

For the compound `Cc1ccc(-c2ccc(Cl)c(F)c2)cc1C1=C(O)[C@]2(CC[C@](O)(C(F)(F)F)CC2)NC1=O` [1-123, (5r,8r)-3-(4′-Chloro-3′-fluoro-4-methylbiphenyl-3-yl)-4,8-dihydroxy-8-(trifluoromethyl)-1-azaspiro[4.5]dec-3-en-2-one], the IC50 in assay [3] (setting [6]) stood at 562 nM; in assay [5] (setting [7]) it was 309 nM; in assay [4] it was 11200 nM; in assay [1] it was 173 nM; in assay [2], 3440 nM.

Turning to `Cc1ccc(-c2ccc(Cl)cc2)cc1C1=C(O)[C@]2(CC[C@H](CO)CC2)NC1=O` [1-117, (5s,8s)-3-(4′-Chloro-4 methylbiphenyl-3-yl)-4-hydroxy-8-(hydroxymethyl)-1-azaspiro[4.5]dec-3-en-2-one], the IC50 was determined as 194 nM in assay [3]; 64 nM in assay [5] (setting [7]); 4110 nM in assay [4]; 232 nM in assay [1]; 812 nM in assay [2].

As for `CO[C@H]1CC[C@]2(CC1)NC(=O)C(c1cc(-c3ccc(Cl)cc3)c(C)cc1C)=C2O` [1-132, (5s,8s)-3-(4′-Chloro-4,6-dimethylbiphenyl-3-yl)-4-hydroxy-8-methoxy-1-azaspiro[4.5]dec-3-en-2-one], the IC50 in assay [3] was 912 nM; in assay [5] (setting [7]), 70 nM; in assay [4] it was 234 nM; in assay [1] it was 1710 nM; in assay [2] it was 106 nM.

Regarding `CC1(C)CCC2(CC1)NC(=O)C(c1cc(-c3ccc(Cl)cc3)ccc1Cl)=C2O` [1-138, 3-(4,4′-Dichlorobiphenyl-3-yl)-4-hydroxy-8,8-dimethyl-1-azaspiro[4.5]dec-3-en-2-one], the IC50 in assay [3] is 172 nM; in assay [5] (setting [7]), 54 nM; in assay [4], 2190 nM; in assay [1] it was 262 nM; in assay [2] it was 633 nM.

For the compound `O=C1NC2(CCCCC2)C(O)=C1c1cc(-c2ccc(Cl)cc2)ccc1Cl` [1-140, 3-(4,4′-Dichlorobiphenyl-3-yl)-4-hydroxy-1-azaspiro[4.5]dec-3-en-2-one], the IC50 was 73 nM in assay [5] (setting [7]), 323 nM in assay [1] and 1520 nM in assay [2].

Regarding `Cc1c(F)cc(-c2ccc(Cl)cc2)cc1C1=C(O)[C@]2(CC[C@H](C(F)(F)F)CC2)NC1=O` [1-91, (5s,8s)-3-(4′-Chloro 5 fluoro 4-methylbiphenyl-3-yl)-4-hydroxy-8-(trifluoromethyl)-1-azaspiro[4.5]dec-3-en-2-one], the IC50 in assay [3] stood at 266 nM; in assay [4], 4990 nM; in assay [1], 302 nM; in assay [2], 5010 nM.

In the case of `O=C1N[C@]2(CC[C@@H](C(F)(F)F)CC2)C(O)=C1c1cc(-c2ccc(Cl)c(F)c2)ccc1Cl` [1-92, (5s,8s)-3-(4,4′-Dichloro-3′-fluorobiphenyl-3-yl)-4-hydroxy-8-(trifluoromethyl)-1-azaspiro[4.5]dec-3-en-2-one], the IC50 in assay [3] was found to be 72 nM; in assay [4], 1660 nM; in assay [1], 226 nM; in assay [2] it was 1450 nM.

For the compound `CO[C@H]1CC[C@]2(CC1)NC(=O)C(c1c(C)ccc(-c3ccc(Cl)cc3)c1C)=C2O` [1-121, (5s,8s)-3-(4′-Chloro-2,4-dimethylbiphenyl-3-yl)-4-hydroxy-8-methoxy-1-azaspiro[4.5]dec-3-en-2-one], the concentration for half-maximal inhibition (IC50) in assay [3] is 172 nM; in assay [5] (setting [7]), 233 nM; in assay [4] it was 1010 nM; in assay [1] it was 402 nM.

For the compound `Cc1cc(C)c(-c2ccc(Cl)cc2)cc1C1=C(O)CC(C)(C)CC1=O` [7-3, 2-(4′-chloro-4,6-dimethylbiphenyl-3-yl)-3-hydroxy-5,5-dimethylcyclohex-2-en-1-one], the IC50 in assay [3] (setting [6]) was 1740 nM; in assay [5] (setting [8]), 974 nM; in assay [4], 13000 nM.

Turning to `Cc1ccc(-c2ccc(Cl)cc2)c(C)c1C1=C(O)C2(CCC3(CCCO3)CC2)NC1=O` (stereo not shown) [1-34, 11-(4′-chloro-2,4-dimethylbiphenyl-3-yl)-12-hydroxy-1-oxa-9-azadispiro[4.2.4.2]tetradec-11-en-10-one], the IC50 in assay [3] (setting [6]) was found to be 297 nM; in assay [5] (setting [7]), 112 nM; in assay [4], 11400 nM.

Consider `Cc1ccc(-c2ccc(Cl)cc2)cc1C1=C(O)C(C)(C)OC1=O` [2-3, 3-(4′-chloro-4-methylbiphenyl-3-yl)-4-hydroxy-5,5-dimethylfuran-2(5H)-one], for which the IC50 in assay [3] was 3730 nM; in assay [5] (MCF7 cells), 1060 nM; in assay [4], greater than 20000 nM.

On to `Cc1cc(C)c(-c2ccc(Cl)cc2)cc1C1=C(O)C(C)OC1=O` (stereo not shown) [2-45, 3-(4′-chloro-4,6-dimethylbiphenyl-3-yl)-4-hydroxy-5-methylfuran-2(5H)-one], for which the IC50 in assay [3] came to 1830 nM; in assay [5] (MCF7 cells), 6700 nM; in assay [4], 17500 nM.

As to `Cc1ccc(-c2ccc(Cl)cc2Cl)cc1C1=C(O)C2(CCCCC2)CC1=O` [6-2, 3-(2′,4′-dichloro-4-methylbiphenyl-3-yl)-4-hydroxyspiro[4.5]dec-3-en-2-one], the IC50 was 263 nM in assay [3] (setting [6]), 194 nM in assay [5] (setting [8]) and 3230 nM in assay [4].

`Cc1ccc(-c2ccc(F)c(F)c2)cc1C1=C(O)[C@]2(CC[C@H](C)CC2)NC1=O` [1-145, (5s,8s)-3-(3′,4′-Difluoro-4-methylbiphenyl-3-yl)-4-hydroxy-8-methyl-1-azaspiro[4.5]dec-3-en-2-one]: the values for the IC50 in assay [5] (setting [7]), in assay [1] and in assay [2] were 273 nM, 194 nM and 3310 nM, respectively.

In the case of `Cc1cc(C)c(-c2ccc(Cl)cc2)cc1C1=C(O)C2(CCCCC2)CC1=O` [6-8, 3-(4′-chloro-4,6-dimethylbiphenyl-3-yl)-4-hydroxyspiro[4.5]dec-3-en-2-one], the half-maximal inhibitory concentration (IC50) was found to be 1160 nM in assay [3] (setting [6]), 254 nM in assay [5] (setting [8]) and 151 nM in assay [4].

Regarding `Cc1ccc(-c2ccc(Cl)cc2)c(C)c1C1=C(O)C2(CCC(C)CC2)NC1=O` (stereo not shown) [1-4, 3-(4′-chloro-2,4-dimethylbiphenyl-3-yl)-4-hydroxy-8-methyl-1-azaspiro[4.5]dec-3-en-2-one], the results for the IC50 in assay [3] (setting [6]), in assay [5] (setting [7]) and in assay [4] were 357 nM, 54 nM and 558 nM, respectively.
